Activity calls are given as the source filed them. The rule behind the calls is not given here.
biological target: T1, Quinolone resistance protein NorA (Staphylococcus aureus) (UniProt P0A0J7); test: Inhibition of Staphylococcus aureus NorA MDR efflux pump
T1 sequence (whole entry): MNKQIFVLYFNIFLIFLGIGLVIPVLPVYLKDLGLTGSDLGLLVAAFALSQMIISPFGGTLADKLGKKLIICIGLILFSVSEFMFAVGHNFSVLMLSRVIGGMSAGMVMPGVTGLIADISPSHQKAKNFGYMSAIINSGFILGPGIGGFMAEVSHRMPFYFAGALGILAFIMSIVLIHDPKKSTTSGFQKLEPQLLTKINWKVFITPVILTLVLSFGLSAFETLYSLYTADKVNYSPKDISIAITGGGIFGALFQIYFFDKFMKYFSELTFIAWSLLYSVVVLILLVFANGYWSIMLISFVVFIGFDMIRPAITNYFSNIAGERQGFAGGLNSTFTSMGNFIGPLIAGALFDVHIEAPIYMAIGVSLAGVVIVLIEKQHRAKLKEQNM

Activity, active:
COc1cc([C@H]2Oc3c(OC)cc(-c4cc(=O)c5c(O)cc(O)cc5o4)cc3O[C@@H]2CO)ccc1O (racemic)
COc1cc([C@H]2Oc3cc(-c4cc(=O)c5c(O)cc(O)cc5o4)cc(OC)c3O[C@@H]2CO)ccc1O (racemic)
COc1cc([C@H]2Oc3cc(-c4cc(=O)c5c(O)cc(O)cc5o4)ccc3O[C@@H]2CO)ccc1O (racemic)
COc1cc([C@H]2Oc3ccc(-c4cc(=O)c5c(O)cc(O)cc5o4)cc3O[C@@H]2CO)ccc1O (racemic)
